# Test results: ChEMBL document CHEMBL5149994, “Anticancer potential of indirubins in medicinal chemistry: Biological activity, structural modification, and structure-activity relationship” (Eur J Med Chem, 2021)
# Legend:
# [1] = Antiproliferative activity against human Lu1 cells assessed as cell growth inhibition; format: functional, cell-based
# HepG2 = test: Antiproliferative activity against human HepG2 cells assessed as cell growth inhibition; format: functional, cell-based
# SW480 [2] = test: Antiproliferative activity against human SW480 cells assessed as cell growth inhibition; format: functional, cell-based
# HL-60 [3] = test: Antiproliferative activity against human HL-60 cells assessed as cell growth inhibition; format: functional, cell-based
# DU-145 [4] = test: Antiproliferative activity against human DU-145 cells assessed as cell growth inhibition by MTT assay; format: functional, cell-based
# SK-MEL-103 = test: Cytotoxicity against human SK-MEL-103 cells assessed as cell growth inhibition measured after 24 hrs by WST-1 assay; format: functional, cell-based; conditions: SK-MEL-103, 24 h
# SK-MEL-147 = test: Cytotoxicity against human SK-MEL-147 cells assessed as cell growth inhibition measured after 24 hrs by WST-1 assay; format: functional, cell-based; conditions: SK-MEL-147, 24 h
# SK-MEL19 = test: Cytotoxicity against human SK-MEL19 cells assessed as cell growth inhibition measured after 24 hrs by WST-1 assay; format: functional, cell-based; conditions: SK-MEL19, 24 h
# [5] = Cytotoxicity against human SK-MEL-29 cells assessed as cell growth inhibition measured after 24 hrs by WST-1 assay; format: functional, cell-based; conditions: SK-MEL-29, 24 h
# [6] = Inhibition of GST-tagged recombinant human CDK2/cyclin E expressed in Sf9 cells incubated for 10 mins in presence of [33P]-gamma ATP and ATP by scintillation counter method
# MCF7 [7] = test: Cytotoxicity against human MCF7 cells assessed as cell growth inhibition measured after 4 days by crystal violet staining based assay; format: functional; conditions: MCF7, 96 h
# [8] = Kinetic solubility of compound in PBS at pH 7.4; format: physicochemical; conditions: read-out: Kinetic_solubility
# A549 [9] = test: Antiproliferative activity against human A549 cells assessed as cell growth inhibition measured after 24 hrs by MTT assay; format: functional, cell-based; conditions: A549, 24 h
# SNU-638 = test: Antiproliferative activity against human SNU-638 cells assessed as cell growth inhibition measured after 24 hrs by MTT assay; format: functional, cell-based; conditions: SNU-638, 24 h
# HT-1080 = test: Antiproliferative activity against human HT-1080 cells assessed as cell growth inhibition measured after 24 hrs by MTT assay; format: functional, cell-based; conditions: HT-1080, 24 h
# [10] = Cytotoxicity against rat RK3E cells harboring RAS assessed as cell growth inhibition measured after 24 hrs by MTT assay; format: toxicity, cell-based
# K562 = test: Antiproliferative activity against human K562 cells assessed as cell growth inhibition measured after 48 hrs by CCK-8 assay; format: functional, cell-based; conditions: K562, 48 h
# [11] = biological target: Indoleamine 2,3-dioxygenase 1 (Homo sapiens, UniProt P14902); test: Inhibition of IDO1 in human Hela cells assessed as reduction in N-formylkynurenine formation incubated for 30 mins; format: cell-based
# Chain of Indoleamine 2,3-dioxygenase 1 (P14902 whole entry): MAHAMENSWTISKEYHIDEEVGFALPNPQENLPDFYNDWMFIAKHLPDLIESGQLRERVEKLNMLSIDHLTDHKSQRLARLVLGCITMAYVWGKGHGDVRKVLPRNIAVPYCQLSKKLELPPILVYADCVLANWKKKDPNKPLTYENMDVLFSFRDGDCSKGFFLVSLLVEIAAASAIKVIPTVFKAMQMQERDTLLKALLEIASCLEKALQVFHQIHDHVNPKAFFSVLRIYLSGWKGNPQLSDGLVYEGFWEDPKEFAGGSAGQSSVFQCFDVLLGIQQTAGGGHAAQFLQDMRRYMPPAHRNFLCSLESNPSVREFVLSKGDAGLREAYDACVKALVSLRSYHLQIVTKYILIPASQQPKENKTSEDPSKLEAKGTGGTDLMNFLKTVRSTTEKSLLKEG
# [12] = Inhibition of starfish oocyte CDK1/Cyclin B using histone H1 as substrate incubated for 10 mins in presence of [gamma-32P]ATP by scintillation counter analysis; design: species or system Marthasterias glacialis
# [13] = biological target: Cyclin-dependent kinase 5/CDK5 activator 1 (Homo sapiens, UniProt Q00535); test: Inhibition of CDK5/p35 (unknown origin); format: protein-complex assay
# Chain of Cyclin-dependent kinase 5/CDK5 activator 1 (Q00535 whole entry): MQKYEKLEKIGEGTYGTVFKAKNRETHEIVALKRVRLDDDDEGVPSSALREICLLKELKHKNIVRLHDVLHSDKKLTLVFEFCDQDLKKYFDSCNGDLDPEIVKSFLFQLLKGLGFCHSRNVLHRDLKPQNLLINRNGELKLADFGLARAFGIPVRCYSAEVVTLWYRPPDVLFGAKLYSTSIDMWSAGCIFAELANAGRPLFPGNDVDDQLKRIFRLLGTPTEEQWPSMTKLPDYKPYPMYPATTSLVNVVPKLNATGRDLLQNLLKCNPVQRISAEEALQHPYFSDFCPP
# Chain of Cyclin-dependent kinase 5/CDK5 activator 1 (Q15078 whole entry, further chain): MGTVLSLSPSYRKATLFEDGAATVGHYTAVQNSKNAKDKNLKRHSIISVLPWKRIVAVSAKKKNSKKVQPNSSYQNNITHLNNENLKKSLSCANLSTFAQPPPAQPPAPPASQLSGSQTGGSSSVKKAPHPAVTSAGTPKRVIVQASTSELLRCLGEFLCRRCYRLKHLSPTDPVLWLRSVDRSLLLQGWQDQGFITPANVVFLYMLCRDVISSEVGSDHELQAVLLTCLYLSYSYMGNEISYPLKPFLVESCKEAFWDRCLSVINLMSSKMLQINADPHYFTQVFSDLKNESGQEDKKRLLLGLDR
# CDK2/Cyclin A2 = CDK2/Cyclin A2 (Homo sapiens, UniProt P24941); test: Inhibition of CDK2/cyclin A (unknown origin); format: protein-complex assay
# U-118-MG = test: cells; conditions: Homo sapiens, 24 h
# Description: Cytotoxicity against human U-118-MG cells assessed as cell growth inhibition measured after 24 hrs by MTT assay
# HL-60 [14] = test: Cytotoxicity against human HL-60 cells assessed as cell growth inhibition measured after 24 hrs by MTT assay; conditions: HL-60, 24 h, read-out: LC50
# HeLa = test: Cytotoxicity against human HeLa cells assessed as cell growth inhibition measured after 24 hrs by SRB assay
# U-87 MG = test: Cytotoxicity against human U87 cells assessed as cell growth inhibition measured after 24 hrs by MTT assay
# [15] = Inhibition of CDK2/cyclin E (unknown origin); design: species or system Homo sapiens
# CH1 = test: Antiproliferative activity against human CH1 cells assessed as cell growth inhibition measured after 96 hrs by MTT assay; format: functional, cell-based; conditions: CH1, 96 h
# SW480 [16] = test: Antiproliferative activity against human SW480 cells assessed as cell growth inhibition measured after 96 hrs by MTT assay; format: functional, cell-based; conditions: SW480, 96 h
# A549 [17] = test: Antiproliferative activity against human A549 cells assessed as cell growth inhibition measured after 96 hrs by MTT assay; format: functional, cell-based; conditions: A549, 96 h
# MCF7 [18] = test: Cytotoxicity against human MCF7 cells assessed as cell growth inhibition; format: functional, cell-based
# PC-3 = test: Cytotoxicity against human PC-3 cells assessed as cell growth inhibition by MTT assay; format: functional, cell-based
# LNCaP = test: Cytotoxicity against human LNCaP cells assessed as cell growth inhibition by MTT assay; format: functional, cell-based
# MCF7 [19] = test: Cytotoxicity against human MCF7 cells assessed as cell growth inhibition by MTT assay; format: functional, cell-based
# LoVo = test: Cytotoxicity against human LoVo cells assessed as cell growth inhibition by MTT assay; format: functional, cell-based
# DU-145 [20] = test: Cytotoxicity against human DU-145 cells assessed as cell growth inhibition by MTT assay; format: functional, cell-based
compound,measurement,setting,value
Cc1cccc(Nc2nnc(SCC(O)CO/N=C3/C(=C4/C(=O)Nc5ccccc54)Nc4ccccc43)s2)c1C (stereo not given),IC50,[1],19.1 µM
same,IC50,HepG2,15.3 µM
same,IC50,SW480 [2],16 µM
same,IC50,HL-60 [3],12 µM
CN1C(=O)/C(=C2\Nc3ccc(Cl)cc3\C2=N/O)c2cccnc21,IC50,DU-145 [4],1.8 µM
O=C1/C(=C2/C(=O)N([C@H]3O[C@H](CO)[C@@H](O)[C@H](O)[C@@H]3O)c3ccccc32)Sc2ccccc21,IC50,SK-MEL-103,6.69 µM
same,IC50,SK-MEL-147,4.28 µM
same,IC50,SK-MEL19,5.81 µM
same,IC50,[5],3.96 µM
CN(C)CCN(C)S(=O)(=O)c1ccc2c(c1)/C(=C1/Nc3ccccc3/C1=N\O)C(=O)N2,IC50,[6],0.04 µM
same,IC50,MCF7 [7],< 0.1 µM
same,solubility kinetic,[8],18 µg/mL
CN(C)S(=O)(=O)c1ccc2c(c1)/C(=C1/Nc3ccccc3C1(C)O)C(=O)N2 (stereo not given),IC50,[6],0.07 µM
same,IC50,MCF7 [7],0.7 µM
same,solubility kinetic,[8],> 40 µg/mL
O=C1Nc2ccc(F)cc2/C1=C1/Nc2ccccc2/C1=N\O,IC50,A549 [9],12.2 µM
same,IC50,SNU-638,2.1 µM
same,IC50,HT-1080,3.4 µM
same,IC50 at 24 h,[10],5.1 µM
C[C@@H]1O[C@H](N2C(=O)/C(=C3\Sc4ccccc4C3=O)c3ccccc32)[C@H](O)[C@H](O)[C@H]1O,IC50,SK-MEL-103,10.4 µM
same,IC50,SK-MEL-147,7.52 µM
same,IC50,SK-MEL19,12 µM
same,IC50,[5],6.29 µM
CN(C)S(=O)(=O)c1ccc2c(c1)/C(=C1/Nc3ccccc3/C1=N\O)C(=O)N2,IC50,[6],0.04 µM
same,IC50,MCF7 [7],0.4 µM
same,solubility kinetic,[8],< 1 µg/mL
C=CCC1(O)/C(=C2/C(=O)Nc3ccc(S(=O)(=O)N(C)C)cc32)Nc2ccccc21 (stereo not given),IC50,[6],0.09 µM
same,IC50,MCF7 [7],0.2 µM
same,solubility kinetic,[8],31 µg/mL
C=CCC1(O)/C(=C2/C(=O)Nc3ccc(S(=O)(=O)N(C)CCN(C)C)cc32)Nc2ccccc21 (stereo not given),IC50,[6],0.04 µM
same,IC50,MCF7 [7],< 0.1 µM
same,solubility kinetic,[8],> 40 µg/mL
CN(C)CCN(C)S(=O)(=O)c1ccc2c(c1)/C(=C1/Nc3ccccc3C1=O)C(=O)N2,IC50,[6],0.01 µM
same,IC50,MCF7 [7],< 0.1 µM
same,solubility kinetic,[8],12 µg/mL
Cc1cn(C2CC(n3cc(COCCOCCOCCN4C(=O)/C(=C5\Nc6ccccc6C5=O)c5ccccc54)nn3)C(CO)O2)c(=O)[nH]c1=O (stereo not given),IC50,K562,34.2 µM
same,IC50,[11],54.7 µM
O=C1Nc2ccc(S(=O)(=O)O)cc2/C1=C1/Nc2ccccc2C1=O,IC50,[12],0.055 µM
same,IC50,[13],0.065 µM
O=C1Nc2ccc([N+](=O)[O-])cc2/C1=C1/Nc2ccccc2/C1=N\O,IC50 at 24 h,[10],1 µM
CCN1C(=O)/C(=C2\Nc3ccccc3C2=O)c2cccnc21,IC50,CDK2/Cyclin A2,1.2 µM
same,IC50,DU-145 [4],40 µM
O=C1/C(=C2/C(=O)N(CC(O)CSc3nnc(Nc4ccccc4)s3)c3ccccc32)Nc2ccccc21 (stereo not given),IC50,[1],2.21 µM
same,IC50,HepG2,1.9 µM
same,IC50,SW480 [2],1.65 µM
same,IC50,HL-60 [3],1.35 µM
O=C1Nc2ccccc2/C1=C1/Nc2ccccc2C1=O [INDIRUBIN],IC50,U-118-MG,12.5 µM
same,CC50,HL-60 [14],98.1 µg/mL
same,IC50,HeLa,40 µM
same,IC50,U-87 MG,12.5 µM
same,IC50,[15],7.5 µM
O=C1Nc2ccccc2/C1=C1/Nc2ccccc2/C1=N\OCC(O)CSc1nnc(Nc2ccccc2)s1 (stereo not given),IC50,[1],16.9 µM
same,IC50,HepG2,17.7 µM
same,IC50,SW480 [2],16.4 µM
same,IC50,HL-60 [3],9.52 µM
CC(=O)O[C@H](CN)CC(=O)O/N=C1/C(=C2/C(=O)Nc3ccccc32)Nc2ccc(O)cc21,IC50,CH1,1.8 µM
same,IC50,SW480 [16],5.6 µM
same,IC50,A549 [17],7.6 µM
NCCO/N=C1/C(=C2/C(=O)Nc3ccc(Br)cc32)Nc2ccc(O)cc21,IC50,CH1,0.28 µM
same,IC50,SW480 [16],0.52 µM
same,IC50,A549 [17],1 µM
C[C@@H]1O[C@H](N2C(=O)/C(=C3\Nc4ccccc4C3=O)c3ccccc32)[C@H](O)[C@H](O)[C@H]1O,IC50,SK-MEL-103,383 µM
same,IC50,MCF7 [18],0.67 µM
same,IC50,SK-MEL19,65.4 µM
same,IC50,[5],86.6 µM
CCN1C(=O)/C(=C2\Nc3ccccc3\C2=N/O)c2ccccc21,IC50,PC-3,13.4 µM
same,IC50,LNCaP,10.3 µM
same,IC50,MCF7 [19],6.72 µM
same,IC50,LoVo,8.49 µM
same,IC50,DU-145 [20],7.44 µM
